Key:
[1] = side-effects noted in the carrageenin-induced paw edema test; type: in vivo; settings: rat; for Side-Effects Noted: rats died: 128 mg/kg po
Procedure: (§1) Male Charles River Rats weighing 145 to 180 g. were employed in the study. Food was withheld for 18 hours before the start of the test, while water was withheld only during the test. Experimental drugs with the desired dose in 3 ml. distilled water (Tween 80)/100 g. body weight were administered orally as suspensions by stomach tube. Control animals, those not receiving drugs, were given the same volume of vehicle by the same route of administration. To induce inflammation, the rear paw was injected into the plantar surface with 0.1 ml. of a 1% carrageenin solution in 0.9% saline. The right paw was also injected with 0.1 ml. of a 0.9% saline solution. At the time of sacrifice, the animals were killed by chloroform. The hind paws were rapidly amputated at tarsocrural joint and weighed on an analytical balance. In all cases the drugs were administered one hour before the paw injections and the sacrifice was performed three hours after the carrageenin injection. The difference in weight (g/100 b.w.) between the carrageenin and the saline injected paws was recorded as the degree of edema.

[2] = system: carrageenin-induced paw edema; assay: carrageenin-induced paw edema test in the rat; type: in vivo, rat (Male Charles River); settings: for inhibition in vivo at 8 mg/kg: 8 mg/kg po; for inhibition in vivo at 16 mg/kg: 16 mg/kg po; for inhibition in vivo at 32 mg/kg: 32 mg/kg po; for inhibition in vivo at 64 mg/kg: 64 mg/kg po; for inhibition in vivo at 128 mg/kg: 128 mg/kg po; for ED30: calculated from the dose-response line; for reduction of carrageenin-induced edema / anti-edema activity: result in words
Procedure: Compounds of the present invention were screened in the carrageenin-inducedpaw edema test in the rat. Acetylsalicylic acid was included in the study for reference comparison.
The method employed was the carrageenin edema test [Winter, C. A., Risley, E. A. and Nuss, G. W., Proc. Soc. exp. Biol. Med. 111:544(1962) and Halperin, B. N. and Briot, M., Arch Int. Pharmacody N. 82:247(1950)].
as §1
A comparison of the effectiveness of the test compounds and the standard reference agent, acetylsalicylic acid, in inhibiting edema resulting from the injection of carrageenin is recorded in the following Table XI.
It should be noted that ED30 refers to that dose which inhibits carrageenin-induced paw edema in 30% of the animals in the test group.

| SMILES | inhibition in vivo at 64 mg/kg [2] | inhibition in vivo at 128 mg/kg [2] | ED30 ([2]; po) | Side-Effects Noted ([1]; po) | also measured |
| --- | --- | --- | --- | --- | --- |
| Cc1nc2ccccc2n2ccnc12 [Compound 110] | 29% | 42% | 40 mg/kg | – | Side-Effects Noted: rats died [1]: 1/6; inhibition in vivo at 8 mg/kg [2]: 12%; inhibition in vivo at 16 mg/kg [2]: 28%; inhibition in vivo at 32 mg/kg [2]: 33%; reduction of carrageenin-induced edema / anti-edema activity ([2]; po): significant reductions of carrageenin-induced edema without attendant side effects |
| c1ccc(Cc2nc3ccccc3n3ccnc23)cc1 | 0% | 0% | > 128 mg/kg | NONE | – |
| CCCc1nc2ccccc2n2ccnc12 [Compound 112] | 0% | 36% | ~128 mg/kg | – | – |
| c1ccc2c(c1)nc(C1CCC1)c1nccn12 | 0% | 64% | ~100 mg/kg | Ptosis at 128 mg/kg | – |
| c1ccc2c(c1)nc(C1CCCCC1)c1nccn12 | 0% | 60% | ~100 mg/kg | NONE | – |
| CCCCCc1nc2ccccc2n2ccnc12 [Compound 114] | 5% | 23% | > 128 mg/kg | NONE | – |
| CCCCCCCCCCCCCCCc1nc2ccccc2n2ccnc12 [Compound 119] | – | 9% | > 128 mg/kg | NONE | – |
| CCc1nc2ccccc2n2ccnc12 [Compound 111] | 41% | 57% | 20.5 mg/kg | – | selectivity ratio ([1]; in vivo, po, read-out: dose associated with side effects, as multiple of ED30): ~3; inhibition in vivo at 4 mg/kg ([2]; 4 mg/kg po): 6%; inhibition in vivo at 8 mg/kg [2]: 23%; inhibition in vivo at 16 mg/kg [2]: 32%; inhibition in vivo at 32 mg/kg [2]: 40%; anti-edemic activity relative to acetylsalicylic acid ([2]; po): approximately 3 X acetylsalicylic acid; reduction of carrageenin-induced edema / anti-edema activity ([2]; po, listed as CH2 CH3): significant reductions of carrageenin-induced edema without attendant side effects; reduction of carrageenin-induced edema / anti-edema activity ([2]; po, listed as ethyl analog): strongest anti-edemic activity |
| CCCCCCCc1nc2ccccc2n2ccnc12 [Compound 116] | – | 0% | > 128 mg/kg | NONE | – |
| CCCCCCCCc1nc2ccccc2n2ccnc12 [Compound 117] | – | 0% | > 128 mg/kg | NONE | – |
| CCCCCCCCCCCCCCCCCc1nc2ccccc2n2ccnc12 [Compound 120] | 0% | 5% | > 128 mg/kg | NONE | – |
| CC(C)Cc1nc2ccccc2n2ccnc12 | 23% | 36% | ~70 mg/kg | – | inhibition in vivo at 16 mg/kg [2]: 0%; inhibition in vivo at 32 mg/kg [2]: 25% |
| c1ccc2c(c1)ncc1nccn12 [Compound 109, imidazo[1,2-a]quinoxaline] | 6% | 54% | ~100 mg/kg | – | Side-Effects Noted: rats died [1]: 1/6 |
| CC(=O)Oc1ccccc1C(=O)O [ASPIRIN, acetylsalicylic acid, reference compound] | 32.5% | 41% | 59.5 mg/kg | NONE | inhibition in vivo at 32 mg/kg [2]: 19%; inhibition in vivo at 256 mg/kg ([2]; 256 mg/kg po): 62% |
| FC(F)(F)c1nc2ccccc2n2ccnc12 [Compound 122, 4-trifluoromethylimidazo[1,2-a]quinoxaline] | 39% | 44% | 35.1 mg/kg | – | dose associated with side effects, as multiple of ED30 ([1]; po): does not show side effects at several multiples of its ED30; Side-Effects Noted ([1]; po, listed as CF3): NONE and did not produce any obvious untoward side effects; Side-Effects Noted ([1]; po, listed as trifluoromethyl analog): did not produce any side effects even at a dose of 128 mg/kg; therapeutic index ([1]; po, result in words): very good therapeutic index; toxicity relative to the non-fluorinated analog ([1]; po, result in words): less toxic; inhibition in vivo at 8 mg/kg [2]: 8%; inhibition in vivo at 16 mg/kg [2]: 29%; inhibition in vivo at 32 mg/kg [2]: 31%; anti-inflammatory activity relative to the ethyl analog ([2]; po): about half; reduction of carrageenin-induced edema / anti-edema activity ([2]; po): significant reductions of carrageenin-induced edema without attendant side effects |
| c1ccc(OCc2nc3ccccc3n3ccnc23)cc1 | – | 0% | > 128 mg/kg | NONE | – |
| CCCCCCCCCc1nc2ccccc2n2ccnc12 [Compound 118] | – | 0% | > 128 mg/kg | NONE | – |
| C(=Cc1nc2ccccc2n2ccnc12)c1ccccc1 | – | 0% | > 128 mg/kg | NONE | – |
| CCCCCCc1nc2ccccc2n2ccnc12 [Compound 115] | 0% | 27% | ~128 mg/kg | NONE | – |
| COCc1nc2ccccc2n2ccnc12 [Compound 125] | 1% | 32% | ~128 mg/kg | – | – |

From patent US4229452A, “Treatment of inflammatory disorders with 4-trifluoromethylimidazo[1,2-a]quinoxaline” (Westwood Pharmaceuticals, Inc., priority 1979, dated 1980)
